From ChEMBL document CHEMBL1201862, “PubChem BioAssay data set” (2004)
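Dose response: 5 concentrations. Exposure: 48 h. Format: 96-well plates. Endpoint: linear interpolation; highest concentration if not reached. Abbreviation: GI50, concentration required for 50% inhibition of growth.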 Active and inactive are the calls of the source. Cut-off read from the data, not from the text of the source: active = GI50 up to about 1.1 µM and inactive = higher.

Assays:
Test in all cases: DTP human tumour cell line panel, 48 h
[1] = test system: COLO 205
[2] = test system: MDA-MB-435
[3] = test system: OVCAR-4
[4] = test system: CCRF-CEM
[5] = test system: HL-60
[6] = test system: T47D
[7] = test system: NCI/ADR-RES
[8] = test system: SK-MEL-2
[9] = test system: MOLT-4
[10] = test system: SF-539
[11] = test system: MDA-N
[12] = test system: 786-0
[13] = test system: NCI-H522
[14] = test system: A549
[15] = test system: NCI-H23
[16] = test system: PC-3
[17] = test system: SW-620
[18] = test system: KM-20L2
[19] = test system: SNB-78

Compound | GI50 [1] | GI50 [2] | GI50 [3] | GI50 [4] | GI50 [5] | GI50 [6] | GI50 [7] | GI50 [8] | GI50 [9] | GI50 [10] | GI50 [11] | GI50 [12] | GI50 [13] | GI50 [14] | GI50 [15] | GI50 [16] | GI50 [17] | GI50 [18] | GI50 [19]
C/C(=N/NC(=S)Nc1ccccc1C)c1ccccn1 | < 0.0196 µM (active) | 0.632 µM (active) | 0.279 µM (active) | 0.0206 µM (active) | 0.0143 µM (active) | < 0.0475 µM (active) | 0.0322 µM (active) | 2.65 µM (inactive) | 0.0175 µM (active) | 1.01 µM (active) | 0.807 µM (active) | 0.0627 µM (active) | 0.583 µM (active) | 0.0855 µM (active) | < 0.0189 µM (active) | < 0.0153 µM (active) | < 0.0177 µM (active) |  | 
O=C(NCCCl)Nc1cccnc1 | 24.7 µM (inactive) | 24.5 µM (inactive) | 43.1 µM (inactive) | 33.7 µM (inactive) | 49.3 µM (inactive) | 35.7 µM (inactive) | 21 µM (inactive) | 29 µM (inactive) | 33 µM (inactive) | 31.3 µM (inactive) | 12.8 µM (inactive) | 16.9 µM (inactive) | 25.6 µM (inactive) | 31.6 µM (inactive) | 17.5 µM (inactive) | 31.4 µM (inactive) | 50.7 µM (inactive) |  | 
CN(C)/C=N/S(=O)(=O)c1nn2c(C=O)c(-c3ccc([N+](=O)[O-])cc3)nc2s1 | 3.18 µM (inactive) | 6.3 µM (inactive) | 11.4 µM (inactive) | 0.834 µM (active) | 1.38 µM (inactive) | 5.68 µM (inactive) | 8.85 µM (inactive) | 10.4 µM (inactive) | 2.35 µM (inactive) | 8.11 µM (inactive) | 2.91 µM (inactive) | 2.29 µM (inactive) | 1.27 µM (inactive) | 22.8 µM (inactive) | 12 µM (inactive) | 7.21 µM (inactive) | 2.52 µM (inactive) |  | 
COc1ccc2c(c1)CCCN2S(=O)(=O)c1ccccc1[N+](=O)[O-] | 40.6 µM (inactive) | 2.99 µM (inactive) | 45.7 µM (inactive) | 33.7 µM (inactive) | 4.56 µM (inactive) | 48.2 µM (inactive) | 19.2 µM (inactive) | 22.5 µM (inactive) | 14.4 µM (inactive) | 27.7 µM (inactive) | 3.73 µM (inactive) | 58.5 µM (inactive) | 26.7 µM (inactive) | 53.7 µM (inactive) | 46.2 µM (inactive) | 34.9 µM (inactive) | 17.4 µM (inactive) |  | 
COC(=O)c1ccc2c(c1)CC1(C2)Cc2ccccc2C1=O (stereo not drawn) | 18 µM (inactive) | 24.5 µM (inactive) | 32.3 µM (inactive) | 19.9 µM (inactive) | 26.5 µM (inactive) | 37.8 µM (inactive) | 27.6 µM (inactive) | 27.4 µM (inactive) | 15.4 µM (inactive) | 38.6 µM (inactive) | 27.7 µM (inactive) | 40.2 µM (inactive) | 25.3 µM (inactive) | 53.1 µM (inactive) | 29.5 µM (inactive) | 42.8 µM (inactive) | 32.7 µM (inactive) |  | 
COC1/C=C/C(C)C(C(C)C(OC)C(C)CCC(=O)C(C)C(CCC(=O)O)OC)OC(=O)/C=C/C=C(\C)CC(OC)CC2=CC(=O)O[C@@H](C(C)C(OC)CC(OC)/C=C/C(C)C(OC)C1)[C@H]2O (stereo partly drawn) | 0.125 µM (active) | 0.748 µM (active) | 0.971 µM (active) | 0.181 µM (active) | 0.185 µM (active) | 2.56 µM (inactive) | > 5 µM (inactive) | 0.271 µM (active) | 0.467 µM (active) | 0.292 µM (active) | 0.6 µM (active) | 0.578 µM (active) | 1.37 µM (inactive) | 0.332 µM (active) | 1.61 µM (inactive) | 0.454 µM (active) | 0.607 µM (active) |  | 
CCCCCCCCCc1cc(O)c(O)cc1CCCCCCCCC | > 10 µM (inactive) | > 10 µM (inactive) | > 10 µM (inactive) | > 10 µM (inactive) | > 10 µM (inactive) | > 10 µM (inactive) | > 10 µM (inactive) | > 10 µM (inactive) | > 10 µM (inactive) | > 10 µM (inactive) | > 10 µM (inactive) | > 10 µM (inactive) | > 10 µM (inactive) | > 10 µM (inactive) | > 10 µM (inactive) | > 10 µM (inactive) | > 10 µM (inactive) |  | 
O=C(N[C@@H](Cc1ccccc1)B(O)O)[C@H](Cc1cccc2ccccc12)NC(=O)N1CCOCC1 | 0.00552 µM (active) | 0.000298 µM (active) | 0.00454 µM (active) | 0.000186 µM (active) | < 0.01 µM (active) | 0.00104 µM (active) | 0.938 µM (active) | 0.00125 µM (active) | 0.000371 µM (active) | 0.000265 µM (active) | < 0.01 µM (active) | 0.00451 µM (active) | < 0.01 µM (active) | 0.0262 µM (active) | 0.00172 µM (active) | 0.00569 µM (active) | 0.00258 µM (active) |  | 
CCCCN(CCCC)C(=O)C(=O)C(C(=O)c1ccc(OC)cc1)c1ccc(OC)cc1 (stereo not drawn) | > 100 µM (inactive) |  | > 100 µM (inactive) | > 100 µM (inactive) | > 100 µM (inactive) |  |  | > 100 µM (inactive) | > 100 µM (inactive) | > 100 µM (inactive) |  | > 100 µM (inactive) |  | > 100 µM (inactive) | > 100 µM (inactive) |  | > 100 µM (inactive) | > 100 µM (inactive) | > 100 µM (inactive)
Fc1cc(-c2cc(-c3ccccc3)no2)c(Cl)cc1Cl | 11.3 µM (inactive) | 11.4 µM (inactive) | 22.9 µM (inactive) | 10.7 µM (inactive) | 19.7 µM (inactive) | 14 µM (inactive) | 54.8 µM (inactive) | 23.6 µM (inactive) | 12.4 µM (inactive) | > 12.4 µM (inactive) | 16.1 µM (inactive) | 15.5 µM (inactive) | 14.9 µM (inactive) | 10.3 µM (inactive) | 14 µM (inactive) | 13.7 µM (inactive) | 20.9 µM (inactive) |  | 
COc1cc(/C=C/C(=O)OCC23CC[C@@]4(C(=O)O)CCC(C)[C@H](C)C4C2=CCC2[C@@]4(C)CC[C@H](O)C(C)(C)C4CC[C@]23C)ccc1O (stereo partly drawn) | > 10 µM (inactive) | 24.5 µM (inactive) | 17.5 µM (inactive) | 4.59 µM (inactive) | 23.4 µM (inactive) | 48.5 µM (inactive) | 15.6 µM (inactive) | 22.5 µM (inactive) | 6.68 µM (inactive) | 14.7 µM (inactive) | 24.3 µM (inactive) | 11 µM (inactive) | 3.98 µM (inactive) | 7.76 µM (inactive) | 3.89 µM (inactive) | 16.3 µM (inactive) | 37.7 µM (inactive) |  | 
COc1cc(C(c2cc(OC)c(OC)c(OC)c2)N2C(=O)CCC2C(=O)O)cc(OC)c1OC (stereo not drawn) | > 100 µM (inactive) | > 100 µM (inactive) | > 100 µM (inactive) | > 100 µM (inactive) | > 100 µM (inactive) | > 100 µM (inactive) | > 100 µM (inactive) | > 100 µM (inactive) | > 100 µM (inactive) | > 100 µM (inactive) | > 100 µM (inactive) | > 100 µM (inactive) | > 100 µM (inactive) | > 100 µM (inactive) | > 100 µM (inactive) | > 100 µM (inactive) | > 100 µM (inactive) |  | 
COc1ccc(C2(C3c4cc(OC)c(OC)cc4CCN3C)SCCCS2)cc1O (stereo not drawn) | > 100 µM (inactive) | > 100 µM (inactive) | > 100 µM (inactive) | > 100 µM (inactive) | > 100 µM (inactive) | > 100 µM (inactive) | 94 µM (inactive) | > 100 µM (inactive) | 26 µM (inactive) | > 100 µM (inactive) | > 100 µM (inactive) | > 100 µM (inactive) | 41.7 µM (inactive) | > 100 µM (inactive) | > 100 µM (inactive) | 47.1 µM (inactive) | > 100 µM (inactive) |  | 
[O-]/[N+](=C\c1ccccc1OC(=S)S)c1ccc(Cl)cc1 | 3.92 µM (inactive) | 15.7 µM (inactive) | 13.9 µM (inactive) | 2.42 µM (inactive) | 0.22 µM (active) | 6.01 µM (inactive) | 18.5 µM (inactive) | 20 µM (inactive) | 5.46 µM (inactive) | 35.6 µM (inactive) | 18 µM (inactive) | 14.6 µM (inactive) | 16.8 µM (inactive) | > 100 µM (inactive) | 23.8 µM (inactive) | 23.9 µM (inactive) | 11.2 µM (inactive) |  | 
CCOC(=O)c1nc2ccccc2nc1Nc1ccc(F)cc1 | > 100 µM (inactive) | > 100 µM (inactive) | > 100 µM (inactive) | > 100 µM (inactive) | > 100 µM (inactive) | 22.9 µM (inactive) | 16.7 µM (inactive) | 23.6 µM (inactive) | > 100 µM (inactive) | 14.2 µM (inactive) | > 100 µM (inactive) | 17.9 µM (inactive) | 20.4 µM (inactive) | 50.9 µM (inactive) | 20.8 µM (inactive) | > 86.9 µM (inactive) | > 100 µM (inactive) |  | 
Cc1cc2ncn(C3CCCO3)c2cc1C (stereo not drawn) | > 100 µM (inactive) | > 100 µM (inactive) | > 100 µM (inactive) | > 100 µM (inactive) | > 100 µM (inactive) | > 100 µM (inactive) | > 100 µM (inactive) | > 100 µM (inactive) | > 100 µM (inactive) | > 100 µM (inactive) | > 100 µM (inactive) | > 100 µM (inactive) | 12.1 µM (inactive) | > 100 µM (inactive) | > 100 µM (inactive) | > 100 µM (inactive) | > 100 µM (inactive) |  | 
